According to article PMC3445454, “Broad and Cross-Clade CD4^+ T-Cell Responses Elicited by a DNA Vaccine Encoding Highly Conserved and Promiscuous HIV-1 M-Group Consensus Peptides” (PLoS ONE, 2012):
Substitutions are numbered along the chain they refer to. Read-outs that look alike come from different tables or passages of the source. Ends that are not written are not given here.

Tests used:
Experiment in all cases: biochemical
Type in all cases: binding
HLA-DR DRB1*09:01 = HLA-DR DRB1*09:01 (Homo sapiens, UniProt P01903+P01911, A100R/A103E/D57H/D86V/F55Y/F60I/F76Y/I96F/K127E/L162R/M171V/P40D/Q125H/Q99R/R33Q/R42F/S133A/S66N/T210M/V115G/W38K/Y107V/Y59G/Y89S)
[1] = molecular target: T1, HLA-DP DPA1*02:01/DPB1*14:01 (Homo sapiens, UniProt P04440+P20036, A65V/A84D/A85E/E86D/F191V/F38H/G113D/G114E/G40L/I94L/K142R/L158P/L37V/M105V/M116V/M62Q/P115A/Q81R/R125K/T114A/T199I/T259P)
T1 sequence (P20036 29-260 A42M/M62Q/Q81R/T114A/K142R/L158P/F191V/T259P): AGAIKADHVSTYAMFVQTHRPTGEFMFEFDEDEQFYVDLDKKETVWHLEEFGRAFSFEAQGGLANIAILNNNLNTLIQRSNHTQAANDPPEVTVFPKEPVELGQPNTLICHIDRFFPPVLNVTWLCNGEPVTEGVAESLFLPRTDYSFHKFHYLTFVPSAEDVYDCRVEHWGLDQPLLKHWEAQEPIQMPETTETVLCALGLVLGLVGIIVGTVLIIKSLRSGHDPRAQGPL
T1 sequence (P04440 30-258 L37V/F38H/G40L/A65V/A84D/A85E/E86D/I94L/M105V/G113D/G114E/P115A/M116V/R125K/T199I/R223Q): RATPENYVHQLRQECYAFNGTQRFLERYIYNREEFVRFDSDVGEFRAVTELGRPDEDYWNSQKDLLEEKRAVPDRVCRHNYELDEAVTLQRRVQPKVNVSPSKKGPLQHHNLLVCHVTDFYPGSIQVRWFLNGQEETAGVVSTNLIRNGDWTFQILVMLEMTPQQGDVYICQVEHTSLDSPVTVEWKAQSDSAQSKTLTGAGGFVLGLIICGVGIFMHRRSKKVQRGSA

[2] = molecular target: T2, HLA-DP DPA1*01:03/DPB1*03:01 (Homo sapiens, UniProt P04440+P20036, A65V/A84D/A85E/E86D/F38Y/G113D/G114E/G40L/I94L/L37V/M105V/M116V/P115A/R125K/T199I)
T2 sequence (P20036 29-260): T1 sequence (P20036 29-260 A42M/M62Q/Q81R/T114A/K142R/L158P/F191V/T259P) with M14A, Q34M, R53Q, A86T, R114K, P130L, V163F, P231T
T2 sequence (P04440 30-258 L37V/F38Y/G40L/A65V/A84D/A85E/E86D/I94L/M105V/G113D/G114E/P115A/M116V/R125K/T199I): T1 sequence (P04440 30-258 L37V/F38H/G40L/A65V/A84D/A85E/E86D/I94L/M105V/G113D/G114E/P115A/M116V/R125K/T199I/R223Q) with H9Y, Q194R

HLA-DR DRB1*12:01 = HLA-DR DRB1*12:01 (Homo sapiens, UniProt P01903+P01911, A100R/A169T/D57E/D86V/F55L/H45Y/K41T/L162R/M171V/P40S/Q125H/Q178H/Q39Y/Q99D/R42G/S66L/T262R/V114A/V67L/W38E/Y59H/Y61H/Y89S)
HLA-DR DRB1*13:02 = HLA-DR DRB1*13:02 (Homo sapiens, UniProt P01903+P01911, A100E/A169T/K41T/L162R/M171V/P40S/Q125H/Q178H/Q39Y/Q99D/R42S/S66N/T262R/V115G/W38E/Y61H)
HLA-DR DRB1*13:02, sequence (P01903 26-254 limits assumed, other chains not shown): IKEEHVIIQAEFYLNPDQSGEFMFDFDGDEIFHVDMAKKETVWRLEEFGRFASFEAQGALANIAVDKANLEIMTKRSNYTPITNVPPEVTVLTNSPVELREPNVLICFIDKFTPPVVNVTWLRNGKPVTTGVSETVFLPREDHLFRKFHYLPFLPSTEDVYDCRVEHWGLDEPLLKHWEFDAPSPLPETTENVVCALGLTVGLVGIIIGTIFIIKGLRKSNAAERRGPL
HLA-DR DRB1*03:01 = HLA-DR DRB1*03:01 (Homo sapiens, UniProt P01903+P01911, A100K/A102G/A103R/A169T/F55Y/I96L/K41T/L162R/M171V/P40S/Q125H/Q178H/Q39Y/R42S/S66N/T106N/T262R/W38E/Y61H)
HLA-DR DRB1*03:01, sequence (P01903 26-254 limits assumed, other chains not shown): as above
HLA-DR DRB3*02:02 = HLA-DR DRB3*02:02 (Homo sapiens, UniProt P01903+P79483, A212P/D57E/F66Y/L67A/R103Q/R218S/R40L/S89Y/T80R/V86D/Y55F/Y59H)
HLA-DR DRB3*02:02, sequence (P01903 26-254 limits assumed): as the sequence (P01903 26-254 limits assumed, other chains not shown) above
HLA-DR DRB3*02:02, sequence (P79483 30-266 R40L/Y55F/D57E/Y59H/F66Y/L67A/T80R/V86D/S89Y/R103Q/A212P/R218S limits assumed): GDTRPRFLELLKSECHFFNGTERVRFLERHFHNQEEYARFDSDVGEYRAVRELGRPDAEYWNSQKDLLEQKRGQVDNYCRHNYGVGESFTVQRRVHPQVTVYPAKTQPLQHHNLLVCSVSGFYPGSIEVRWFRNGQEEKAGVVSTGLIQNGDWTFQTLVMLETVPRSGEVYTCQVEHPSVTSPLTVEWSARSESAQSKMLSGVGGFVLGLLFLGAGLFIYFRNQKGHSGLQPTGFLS
HLA-DR DRB1*10:01 = HLA-DR DRB1*10:01 (Homo sapiens, UniProt P01903+P01911, A100R/A169T/D57E/F55L/F60V/F69Y/F76Y/I96L/L162R/M171V/P40V/Q260P/Q39E/Q99R/R195Q/R42F/S149N/S66Y/T210M/V115G/V67A/W38E/Y59R/Y61H)
HLA-DR DRB1*07:01 = HLA-DR DRB1*07:01 (Homo sapiens, UniProt P01903+P01911, A100R/A102G/A103Q/D57E/D86V/E43K/F76Y/K127E/L162R/M171V/P40G/Q125H/Q99D/R33Q/R42Y/R54Q/S133A/S66F/T210M/V115G/Y107V/Y59L/Y89S)
HLA-DR DRB1*11:01 = HLA-DR DRB1*11:01 (Homo sapiens, UniProt P01903+P01911, A100R/A169T/A87E/I96F/K41T/L162R/M171V/P40S/Q125H/Q178H/Q39Y/Q99D/R42S/S66Y/T262R/V115G/W38E)
HLA-DR DRB1*11:01, sequence (P01903 26-254 limits assumed, other chains not shown): as the sequence (P01903 26-254 limits assumed, other chains not shown) above

[3] = read-out: Binding capacity/IC50 (nM) DRB1*09:01
[4] = read-out: Binding capacity/IC50 (nM) DPA1*02:01 DPB1*14:01
[5] = read-out: Binding capacity/IC50 (nM) DPA1*01:03 DPB1*03:01
[6] = read-out: Binding capacity/IC50 (nM) DRB1*12:01
[7] = read-out: Binding capacity/IC50 (nM) DRB1*13:02
[8] = read-out: Binding capacity/IC50 (nM) DRB1*03:01
[9] = read-out: Binding capacity/IC50 (nM) DRB3*02:02
[10] = read-out: Binding capacity/IC50 (nM) DRB1*10:01
[11] = read-out: Binding capacity/IC50 (nM) DRB1*07:01
[12] = read-out: Binding capacity/IC50 (nM) DRB1*11:01

Molecule	IC50 (HLA-DR DRB1*09:01; [3]) [nM]	IC50 [1, 4] [nM]	IC50 [2, 5] [nM]	IC50 (HLA-DR DRB1*12:01; [6]) [nM]	IC50 (HLA-DR DRB1*13:02; [7]) [nM]	IC50 (HLA-DR DRB1*03:01; [8]) [nM]	IC50 (HLA-DR DRB3*02:02; [9]) [nM]	IC50 (HLA-DR DRB1*10:01; [10]) [nM]	IC50 (HLA-DR DRB1*07:01; [11]) [nM]	IC50 [1] [nM]	IC50 [2] [nM]	IC50 (HLA-DR DRB1*11:01; [12]) [nM]	IC50 (HLA-DR DRB1*09:01) [nM]	IC50 (HLA-DR DRB1*12:01) [nM]	IC50 (HLA-DR DRB1*03:01) [nM]	IC50 (HLA-DR DRB3*02:02) [nM]	IC50 (HLA-DR DRB1*10:01) [nM]	IC50 (HLA-DR DRB1*11:01) [nM]	IC50 (HLA-DR DRB1*07:01) [nM]	IC50 (HLA-DR DRB1*13:02) [nM]
CC[C@H](C)[C@H](NC(=O)[C@H](Cc1ccc(O)cc1)NC(=O)CNC(=O)[C@H](CO)NC(=O)[C@H](C)NC(=O)[C@@H](NC(=O)[C@H](Cc1c[nH]cn1)NC(=O)[C@@H](NC(=O)[C@H](C)NC(=O)[C@@H](NC(=O)[C@H](CC(C)C)NC(=O)[C@@H](NC(=O)[C@@H](NC(=O)[C@H](CCCCN)NC(=O)CNC(=O)[C@@H](N)CCC(=O)O)[C@@H](C)CC)[C@@H](C)CC)C(C)C)C(C)C)C(C)C)C(=O)N[C@@H](CCC(=O)O)C(N)=O [integrase(69-85)]	58	1370	1990	2940	17000	7940	7190	4.8	70											
SEELRSLYNTVATLYCVHQ-NH2 [p17(72-90)]	217			1680	1050	652	6290	39	661	9710	1740	1070								
EAVRHFPRPWLHGL-NH2 [vpr(29-42)]										7690	11		1270	> 30000	> 30000	9490	311	> 30000	1390	
NYPIVQNLQGQMVHQAISPR-NH2 [p17(131-132)/p24(1-18)]	248	2990	344	940			2880	59	5420			1130								
LNKIVRMYSPVSILDI-NH2 [p24(138-153)]	36	16	16					6.6				79								
CC[C@H](C)[C@H](NC(=O)[C@@H]1CCCN1C(=O)[C@H](CCC(=O)O)NC(=O)[C@@H](N)CCCCN)C(=O)N[C@H](C(=O)NCC(=O)N[C@@H](C)C(=O)N[C@@H](CCC(=O)O)C(=O)N[C@H](C(=O)N[C@@H](Cc1ccccc1)C(=O)N[C@@H](Cc1ccc(O)cc1)C(=O)N[C@H](C(=O)N[C@@H](CC(=O)O)C(=O)NCC(=O)N[C@@H](C)C(N)=O)C(C)C)[C@@H](C)O)C(C)C [RT(431-445)]	23			293	266			4.4	75	1350	28400	3190				611				
CC[C@H](C)[C@H](NC(=O)CNC(=O)[C@H](CCCCN)NC(=O)[C@H](Cc1c[nH]cn1)NC(=O)[C@H](C)NC(=O)[C@@H]1CCCN1C(=O)[C@@H](NC(=O)[C@H](Cc1c[nH]c2ccccc12)NC(=O)[C@H](CO)NC(=O)[C@H](CC(C)C)NC(=O)[C@H](Cc1ccc(O)cc1)NC(=O)[C@@H](NC(=O)[C@H](CCCCN)NC(=O)[C@H](CCC(=O)O)NC(=O)[C@@H](N)CCCCN)C(C)C)C(C)C)C(=O)NCC(=O)NCC(=O)N[C@@H](CC(N)=O)C(=O)N[C@@H](CCC(=O)O)C(N)=O [RT(528-546)]	33			2100		612	82		6.3	4850	76	3150								
VGSLQYLALTALITPKK-NH2 [vif(142-158)]										71	74		64	1670	4510	577		48	4.1	7.1
IRYPLTFGWCFKLVPVDPREVEEA-NH2 [nef(133-156)]	360	15900	5360	4430	4290	704	> 30000		472			4540								
DEELLKAVRIIKILYQSNP-NH2 [rev(9-27)]	124	710	466	66		632	4.4	3.9	41			2120								
